From patent US9643974B2, “Amino-substituted imidazopyridazines” (Bayer Intellectual Property GmbH, priority 2011, dated 2017)

Columns and labels:
human full-length MKNK1 = molecular target: T1, human full-length MKNK1 (Homo sapiens, UniProt Q9BUB5, T385D); assay: MKNK1 kinase high ATP assay (TR-FRET-based); assay type: biochemical; details: ATP final conc. 2 mM, 15 min preincubation, 30 min reaction at 22° C.
T1 construct: purchased Carna Biosciences 02-145; host or cells: insect cells (baculovirus expression system)
T1 sequence (Q9BUB5 1-424 isoform Q9BUB5-2 T344D): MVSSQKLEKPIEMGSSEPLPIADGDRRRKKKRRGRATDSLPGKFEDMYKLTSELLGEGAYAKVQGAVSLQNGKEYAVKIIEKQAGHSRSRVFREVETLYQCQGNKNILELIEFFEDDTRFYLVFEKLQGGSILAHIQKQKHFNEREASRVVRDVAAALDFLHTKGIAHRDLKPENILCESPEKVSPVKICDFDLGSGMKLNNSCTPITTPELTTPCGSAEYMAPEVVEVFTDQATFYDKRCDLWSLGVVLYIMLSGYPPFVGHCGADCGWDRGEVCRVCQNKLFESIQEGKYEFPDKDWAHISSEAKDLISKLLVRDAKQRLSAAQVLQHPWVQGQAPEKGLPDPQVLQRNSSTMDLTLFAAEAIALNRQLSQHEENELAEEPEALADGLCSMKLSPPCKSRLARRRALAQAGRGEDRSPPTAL
Description: MKNK1 Kinase High ATP Assay
MKNK1-inhibitory activity at high ATP of compounds of the present invention after their preincubation with MKNK1 was quantified employing the TR-FRET-based MKNK1 high ATP assay as described in the following paragraphs.
(§1) A recombinant fusion protein of Glutathione-S-Transferase (GST, N-terminally) and human full-length MKNK1 (amino acids 1-424 and T344D of accession number BAA 19885.1), expressed in insect cells using baculovirus expression system and purified via glutathione sepharose affinity chromatography, was purchased from Carna Biosciences (product no 02-145) and used as enzyme. As substrate for the kinase reaction the biotinylated peptide biotin-Ahx-IKKRKLTRRKSLKG (C-terminus in amide form) was used, which can be purchased e.g. from the company Biosyntan (Berlin-Buch, Germany).
(§2) For the assay 50 nL of a 100 fold concentrated solution of the test compound in DMSO was pipetted into a black low volume 384 well microtiter plate (Greiner Bio-One, Frickenhausen, Germany), 2 μL of a solution of MKNK1 in aqueous assay buffer [50 mM HEPES pH 7.5, 5 mM magnesium chloride, 1.0 mM dithiothreitol, 0.005% (v/v) Nonidet-P40 (Sigma)] was added and the mixture was incubated for 15 min at 22° C. to allow pre-binding of the test compounds to the enzyme before the start of the kinase reaction. Then the kinase reaction was started by the addition of 3 μL of a solution of adenosine-tri-phosphate (ATP, 3.3 mM=>final conc. in the 5 μL assay volume is 2 mM) and substrate (0.1 μM=>final conc. in the 5 μL assay volume is 0.06 μM) in assay buffer and the resulting mixture was incubated for a reaction time of 30 min at 22° C. The concentration of MKNK1 was adjusted depending of the activity of the enzyme lot and was chosen appropriate to have the assay in the linear range, typical concentrations were in the range of 0.003 μg/mL. The reaction was stopped by the addition of 5 μL of a solution of TR-FRET detection reagents (5 nM streptavidine-XL665 [Cisbio Bioassays, Codolet, France] and 1 nM anti-ribosomal protein S6 (pSer236)-antibody from Invitrogen [#44921G] and 1 nM LANCE EU-W1024 labeled ProteinG [Perkin-Elmer, product no. AD0071]) in an aqueous EDTA-solution (100 mM EDTA, 0.1% (w/v) bovine serum albumin in 50 mM HEPES pH 7.5).
(§3) The resulting mixture was incubated for 1 h at 22° C. to allow the formation of complex between the phosphorylated biotinylated peptide and the detection reagents. Subsequently the amount of phosphorylated substrate was evaluated by measurement of the resonance energy transfer from the Eu-chelate to the streptavidine-XL. Therefore, the fluorescence emissions at 620 nm and 665 nm after excitation at 350 nm were measured in a TR-FRET reader, e.g. a Rubystar (BMG Labtechnologies, Offenburg, Germany) or a Viewlux (Perkin-Elmer). The ratio of the emissions at 665 nm and at […] was taken as the measure for the amount of phosphorylated substrate. The data were normalised (enzyme reaction without inhibitor=0% inhibition, all other assay components but no enzyme=100% inhibition).

human full-lengt MKNK1 = molecular target: T2, human full-lengt MKNK1 (Homo sapiens, UniProt Q9BUB5, T385D); assay: MKNK1 kinase assay (MKNK1 TR-FRET assay); assay type: biochemical; details: ATP final conc. 10 μM, 15 min preincubation, 45 min reaction at 22° C.
T2 construct: purchased Carna Biosciences 02-145; host or cells: insect cells (baculovirus expression system)
T2 sequence (Q9BUB5 1-424 isoform Q9BUB5-2 T344D): as above
From the text: MKNK1-inhibitory activity of compounds of the present invention was quantified employing the MKNK1 TR-FRET assay as described in the following paragraphs.
as §1, with “human full-lengt” for “human full-length”, “was used” for “was used,”, “e.g. form” for “e.g. from”
as §2, with “16.7 μM=>final” for “3.3 mM=>final”, “10 μM)” for “2 mM)”, “45” for “30”, “0.05 μg/ml.” for “0.003 μg/mL.”
as §3, with “inhibition). Usually the test compounds were tested on the same microtiterplate in 11 different concentrations in the range of 20 μM to 0.1 nM (20 μM, 5.9 μM, 1.7 μM, 0.51 μM, 0.15 μM, 44 nM, 13 nM, 3.8 nM, 1.1 nM, 0.33 nM and 0.1 nM, the dilution series prepared separately before the assay on the level of the 100 fold concentrated solutions in DMSO by serial 1:3.4 dilutions) in duplicate values for each concentration and […] were calculated by a 4 parameter fit.” for “inhibition).”

Compound | IC50 (human full-length MKNK1) | IC50 (human full-lengt MKNK1)
CCOc1nccc2oc(-c3cnc4ccc(OC[C@H](C)N)nn34)cc12 [Example 32, (2S)-1-{[3-(4-Ethoxyfuro[3,2-c]pyridin-2-yl)imidazo[1,2-b]pyridazin-6-yl]oxy}-propan-2-amine] | 37 nM | 14 nM
COc1nccc2oc(-c3cnc4ccc(OC(CN)Cc5ccccc5)nn34)cc12 (stereo not drawn) [Example 33, 2-{[3-(4-Methoxyfuro[3,2-c]pyridin-2-yl)imidazo[1,2-b]pyridazin-6-yl]oxy}-3-phenylpropan-1-amine] | 117 nM | 99 nM
C[C@H](N)COc1ccc2ncc(-c3cc4c(OCC(C)(C)C)nccc4o3)n2n1 [Example 34, (2S)-1-({3-[4-(2,2-Dimethylpropoxy)furo[3,2-c]pyridin-2-yl]imidazo[1,2-b]-pyridazin-6-yl}oxy)propan-2-amine] | 15 nM | 5 nM
N[C@H]1C[C@H](Oc2ccc3ncc(-c4cc5c(O)nccc5o4)n3n2)C1 [Example 35, 2-{6-[(trans-3-Aminocyclobutyl)oxy]imidazo[1,2-b]pyridazin-3-yl}furo[3,2-c]-pyridin-4-ol] | 44 nM | 21 nM
CCOc1nccc2oc(-c3cnc4ccc(O[C@H]5C[C@H](N)C5)nn34)cc12 [Example 36, trans-3-{[3-(4-Ethoxyfuro[3,2-c]pyridin-2-yl)imidazo[1,2-b]pyridazin-6-yl]oxy}-cyclobutanamine] | 4 nM | 4 nM
CC(C)Oc1nccc2oc(-c3cnc4ccc(O[C@H]5C[C@H](N)C5)nn34)cc12 [Example 37, trans-3-({3-[4-(Propan-2-yloxy)furo[3,2-c]pyridin-2-yl]imidazo[1,2-b]pyridazin-6-yl}oxy)cyclobutanamine] | 17 nM | 7 nM
CCOc1nccc2oc(-c3cnc4ccc(OC[C@@H](C)N)nn34)cc12 [Example 38, (2R)-1-{[3-(4-Ethoxyfuro[3,2-c]pyridin-2-yl)imidazo[1,2-b]pyridazin-6-yl]oxy}-propan-2-amine] | 23 nM | 8 nM
CCN(C(=O)OC(C)(C)C)c1nccc2oc(-c3cnc4ccc(OC[C@H](C)N)nn34)cc12 [Example 39, tert-Butyl[2-(6-{[(2S)-2-aminopropyl]oxy}imidazo[1,2-b]pyridazin-3-yl)-furo[3,2-c]pyridin-4-yl]ethylcarbamate] | 593 nM | 250 nM
CCNc1nccc2oc(-c3cnc4ccc(OC[C@H](C)N)nn34)cc12 [Example 40, 2-(6-{[(2S)-2-Aminopropyl]oxy}imidazo[1,2-b]pyridazin-3-yl)-N-ethylfuro[3,2-c]pyridin-4-amine] | 13 nM | 5 nM
